Experimental findings from ChEMBL document CHEMBL2016510 (J Med Chem, 2012) are described below.

By Emax is commonly meant the size of the effect at its maximum, as opposed to the concentration needed. As usually defined, the EC50 is the concentration giving half of the maximal effect. The term EC30 denotes the concentration needed for an effect of 30%. Broadly, the IC50 is the concentration needed to halve the response being measured. Broadly, the Papp is the rate of passage across a membrane or cell layer, normalised by area and donor concentration.

SMILES strings stand for the structures.

Data set [1] can be described thus: Negative chronotropic activity in guinea pig spontaneously beating right atria assessed as decrease in atrial rate at 10^-4 M relative to control. The format is functional, Cavia porcellus, Cardiac atrium. More on the design: scale not given: the % may be the effect or the level left.
The test system of the next data set is Aorta. The experiment in a line: Vasorelaxant activity in potassium depolarized guinea pig aortic strip assessed as inhibition of calcium-induced contraction at 10^-4 M. The format is functional, Cavia porcellus. More on the design: scale not given: the % may be the effect or the level left.
The nature of data set [2]: Antiarrhythmic activity in guinea pig left atria assessed as increase of 1 Hz-induced alternating current arrhythmia at 10^-4 M after 60 mins relative to control. The format is functional. Particulars: Cavia porcellus, Cardiac atrium, 1 h.
A short description of data set [3]: Negative inotropic activity in guinea pig left atria assessed as decrease of 1 Hz current-induced developed tension at 10^-4 M relative to control. The format is functional, Cavia porcellus, Cardiac atrium. More on the design: scale not given: the % may be the effect or the level left.
Data set [4] in a line: […] chronotropic activity in guinea pig spontaneously beating right atria assessed as decrease in atrial rate at 5 x 10^-6 M relative to control. More on the design: scale not given: the % may be the effect or the level left. The format is functional, Cavia porcellus, Cardiac atrium.
The nature of data set [5]: Negative inotropic activity in guinea pig left atria assessed as decrease of 1 Hz current-induced developed tension at 10^-6 M relative to control. The format is functional, Cavia porcellus, Cardiac atrium. More on the design: scale not given: the % may be the effect or the level left.
Data set [6] in a line: Negative inotropic activity in guinea pig left atria assessed as decrease of 1 Hz current-induced developed tension. The format is functional, tissue-based. Particulars: Cavia porcellus, Cardiac atrium.
Data set [7] in a line: Antiarrhythmic activity in guinea pig left atria assessed as increase of 1 Hz-induced alternating current arrhythmia at 5 x 10^-5 M after 60 mins relative to control. The format is functional. The following applies: Cavia porcellus, Cardiac atrium, 1 h.
Data set [8] is described as follows: […] chronotropic activity in guinea pig spontaneously beating right atria assessed as decrease in atrial rate at 10^-4 M relative to control. The format is functional, Cavia porcellus, Cardiac atrium. More on the design: scale not given: the % may be the effect or the level left.
The nature of data set [9]: Negative inotropic activity in guinea pig left atria assessed as decrease of 1 Hz current-induced developed tension at 5 x 10^-7 M relative to control. The arrangement: scale not given: the % may be the effect or the level left. The format is functional, Cavia porcellus, Cardiac atrium.
Data set [10] is described as follows: Negative chronotropic activity in guinea pig spontaneously beating right atria assessed as decrease in atrial rate. The format is functional. The following applies: Cavia porcellus, Cardiac atrium.
The nature of data set [11]: Negative chronotropic activity in guinea pig spontaneously beating right atria assessed as decrease in atrial rate at 5 x 10^-5 M relative to control. The format is functional, Cavia porcellus, Cardiac atrium. More on the design: scale not given: the % may be the effect or the level left.
Data set [12] can be described thus: Negative inotropic activity in guinea pig left atria assessed as decrease of 1 Hz current-induced developed tension at 5 x 10^-5 M relative to control. The format is functional, Cavia porcellus, Cardiac atrium. The arrangement: scale not given: the % may be the effect or the level left.
Data set [13] concerns Caco-2. The experiment in a line: Efflux ratio of permeability from basolateral to apical side to apical to basolateral side in human Caco2 cells after 21 days by UV spectroscopy. The format is ADME, cell-based. In general terms: Passage across Caco-2 layers is used to estimate intestinal permeability.
Data set [14] in a line: Antiarrhythmic activity in guinea pig left atria assessed as increase of 1 Hz-induced alternating current arrhythmia after 60 mins. The format is functional, tissue-based. The following applies: Cavia porcellus, Cardiac atrium, 1 h.
A further data set relates to HepG2. The experiment in a line: Cytotoxicity against human HepG2 cells assessed as cell viability after 2 hrs by MTT assay. The format is cell-based. The following applies: HepG2, 2 h.
In a further data set the test system is Mus musculus. The experiment in a line: Neurotoxicity in mouse assessed as deffect in motor coordination at 25 to 50 mg/kg, po after 15 to 45 mins by rotarod test. The format is toxicity, organism-based. The following applies: in vivo. The arrangement: route oral. A general note: Falling from the rotarod earlier than controls is read as motor impairment.

Data set [15] concerns the target T1, Sodium channel protein type 5 subunit alpha (Homo sapiens, UniProt Q14524). Description: Blockade of human full-length NaV1.5 expressed in HEK293 cells co-transfected with pCD8-IRES-hbeta1 assessed as 10 Hz of use-dependent-induced channel current at -120 mV holding potential after 36 to 72 hrs by patch clamp assay. The format is cell-based. A general note: Patch clamp records ionic current or voltage across a cell membrane.

For data set [16], the system named is Caco-2. Description: Apparent permeability from basolateral to apical side in human Caco2 cells after 21 days by UV spectroscopy. The format is ADME, cell-based.
For data set [17], the target named is T1, Sodium channel protein type 5 subunit alpha. Description: Blockade of human full-length NaV1.5 expressed in HEK293 cells co-transfected with pCD8-IRES-hbeta1 assessed as 0.1 Hz of half-maximal tonic-induced channel current at -120 mV holding potential after 36 to 72 hrs by patch clamp assay. The format is cell-based.
Data set [18] relates to Caco-2. The experiment in a line: Apparent permeability from apical to basolateral side in human Caco2 cells after 21 days by UV spectroscopy. The format is ADME, cell-based.

T1 sequence (Q14524 whole entry): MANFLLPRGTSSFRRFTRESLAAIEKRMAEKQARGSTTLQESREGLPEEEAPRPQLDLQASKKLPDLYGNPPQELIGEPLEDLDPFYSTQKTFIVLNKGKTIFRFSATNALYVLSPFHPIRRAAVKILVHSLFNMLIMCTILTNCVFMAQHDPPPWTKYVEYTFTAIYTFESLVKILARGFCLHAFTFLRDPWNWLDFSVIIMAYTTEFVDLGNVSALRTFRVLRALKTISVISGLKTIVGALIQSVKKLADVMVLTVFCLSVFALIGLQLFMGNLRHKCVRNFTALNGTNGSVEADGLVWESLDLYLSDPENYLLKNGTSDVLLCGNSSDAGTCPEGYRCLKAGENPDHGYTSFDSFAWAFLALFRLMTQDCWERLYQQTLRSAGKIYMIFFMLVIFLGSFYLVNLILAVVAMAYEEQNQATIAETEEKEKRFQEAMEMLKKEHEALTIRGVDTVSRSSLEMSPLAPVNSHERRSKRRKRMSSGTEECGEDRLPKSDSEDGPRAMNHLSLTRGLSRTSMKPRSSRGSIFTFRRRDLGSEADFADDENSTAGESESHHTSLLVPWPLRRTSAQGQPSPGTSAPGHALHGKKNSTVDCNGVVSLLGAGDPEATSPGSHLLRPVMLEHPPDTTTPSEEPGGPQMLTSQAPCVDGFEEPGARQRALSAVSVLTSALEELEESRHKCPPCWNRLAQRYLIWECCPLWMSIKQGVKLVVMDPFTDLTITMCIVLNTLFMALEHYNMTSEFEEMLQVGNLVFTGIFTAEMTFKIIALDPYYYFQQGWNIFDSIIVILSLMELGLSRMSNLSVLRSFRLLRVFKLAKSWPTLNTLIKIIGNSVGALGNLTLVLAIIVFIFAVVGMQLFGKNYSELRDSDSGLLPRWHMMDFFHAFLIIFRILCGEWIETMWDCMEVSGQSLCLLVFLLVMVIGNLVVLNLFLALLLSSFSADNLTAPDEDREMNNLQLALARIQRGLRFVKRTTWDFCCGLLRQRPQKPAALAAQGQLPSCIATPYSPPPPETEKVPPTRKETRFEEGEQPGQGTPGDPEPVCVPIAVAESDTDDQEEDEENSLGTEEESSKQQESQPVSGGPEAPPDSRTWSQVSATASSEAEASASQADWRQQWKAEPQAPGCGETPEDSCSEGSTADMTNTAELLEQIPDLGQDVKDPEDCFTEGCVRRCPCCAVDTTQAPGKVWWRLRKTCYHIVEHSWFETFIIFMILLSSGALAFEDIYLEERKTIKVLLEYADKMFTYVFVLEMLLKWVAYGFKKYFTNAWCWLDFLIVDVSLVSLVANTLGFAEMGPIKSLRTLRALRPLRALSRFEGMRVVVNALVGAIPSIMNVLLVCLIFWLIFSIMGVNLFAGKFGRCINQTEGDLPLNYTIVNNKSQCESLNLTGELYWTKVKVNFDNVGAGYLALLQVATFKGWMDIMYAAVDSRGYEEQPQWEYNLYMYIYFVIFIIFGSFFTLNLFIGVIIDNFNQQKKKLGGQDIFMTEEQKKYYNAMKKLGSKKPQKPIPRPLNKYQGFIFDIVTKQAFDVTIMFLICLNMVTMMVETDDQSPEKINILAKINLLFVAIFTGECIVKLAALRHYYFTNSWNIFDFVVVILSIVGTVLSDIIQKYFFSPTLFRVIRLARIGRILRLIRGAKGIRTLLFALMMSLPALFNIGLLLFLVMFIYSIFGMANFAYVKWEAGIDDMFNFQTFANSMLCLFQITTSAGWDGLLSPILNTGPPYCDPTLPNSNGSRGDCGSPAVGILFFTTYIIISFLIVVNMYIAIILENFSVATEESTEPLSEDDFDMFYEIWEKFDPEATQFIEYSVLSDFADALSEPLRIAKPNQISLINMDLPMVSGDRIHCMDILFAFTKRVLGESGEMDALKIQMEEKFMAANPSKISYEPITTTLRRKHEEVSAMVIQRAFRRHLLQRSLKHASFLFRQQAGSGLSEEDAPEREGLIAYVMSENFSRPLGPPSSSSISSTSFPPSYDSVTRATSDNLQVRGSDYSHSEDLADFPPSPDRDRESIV

Turning to `CCCCc1oc2ccccc2c1C(=O)c1cc(I)c(OCCN(CC)CC)c(I)c1` [AMIODARONE], the figures for the Activity (in data set [1]; in the data set on Aorta; in [3]) were 72%, 3% and 30%, respectively. Moreover, the Emax at 100 µM in data set [2] was determined as 10%.
On to `CCN(CC)CC(=O)Nc1c(C)cccc1C` [LIDOCAINE], for which the values for the Activity (in data set [4]; in data set [5]; in the data set on Aorta) were 29%, 88% and 14%, respectively. Besides, the EC50 in [6] was found to be 0.017 µM. The Emax at 50 µM in data set [7] was 34%.
For `CCN(CC)CCOC(=O)c1ccc(N)cc1` [PROCAINE], the Activity in [8] is reported as 9%; with Aorta, 3%; in data set [9] it was 92%. Further, in data set [6], the EC50 worked out at 0.014 µM.
For `C=C[C@H]1CN2CC[C@H]1C[C@@H]2[C@@H](O)c1ccnc2ccc(OC)cc12` [QUINIDINE], the EC30 in [10] is 3.99 µM. For the same molecule, the Activity in [11] amounted to 86%; with Aorta, 30%; in data set [12] it was 71%. Besides, the Emax at 50 µM in data set [7] turned out to be 69%.
`Cc1ccc(O)c(C)c1OCC(C)N` (racemic): in the data set with Caco-2 [13], the Ratio came out at 2.1. Also, the EC50 in data set [14] is 10.2 µM; with HepG2, above 2000 µM; in data set [6] it was 0.098 µM. Further, the Activity result in the data set on Mus musculus was “Non-toxic”; in [1], 39%; in the data set on Aorta, 19%; in data set [12], 96%. The values for the IC50 in [15] and in data set [17] were 30 µM and 174 µM, respectively. In addition, the values for the apparent permeability coefficient (Papp) with Caco-2 [16] and in the data set on Caco-2 [18] were 142.5 ×10⁻⁶ cm/s and 300.6 ×10⁻⁶ cm/s, respectively. For the same molecule, the Emax at 100 µM in data set [2] was 72%.
Take `CCN(CC)CCNC(=O)c1ccc(N)cc1` [PROCAINAMIDE]: the Emax at 50 µM in data set [7] came to 11%.
Consider `Cc1cccc(C)c1OCC(C)N` (racemic) [MEXILETINE], for which the EC30 in [10] came to 0.014 µM. The EC50 amounted to 11.6 µM in [14], 2000 µM in the data set with HepG2 and 0.045 µM in data set [6]. In the data set with Aorta, the Activity turned out to be 5%. Moreover, in data set [2], the Emax at 100 µM was 64%.
